Assay results taken from the supplement of paper PMC10307832.

What was measured:
Experiment in all cases: relative viability (nuclei count vs DMSO), 5 days (fraction); higher = more cells survive
[1] = compound: CN1C=C(C2=CC=CC=C21)/C=C\3/C4=C(C=CC=N4)NC3=O
Procedure, shortened: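 MetaXpress counted nuclei in 4× images of lung cancer cell lines that had been fixed, permeabilised and Hoechst-stained in one step. Before that, cells in 1536-well plates were kept overnight at 37 °C, pinned with five √10-spaced library-drug doses on vehicle-anchored plates, and cultured 5 days without medium change. Viability takes treated-well nuclei over vehicle-well nuclei and uses the median across plates. Plates were accepted only at control CV below 25% and at least one doubling.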

[2] = compound: CN1C=C(C2=CC=CC=C21)/C=C\3/C4=C(C=CC=N4)NC3=O + CS(=O)(=O)CCNCc1ccc(-c2ccc3ncnc(Nc4ccc(OCc5cccc(F)c5)c(Cl)c4)c3c2)o1 [Lapatinib] (partner 2 µM)
Procedure, shortened: (§1)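 The day after seeding in 1536-well plates, lung cancer cell lines were treated by pin tool with a single drug, or with a fixed anchor-drug dose together with five library-drug doses (not always all listed) in √10 steps. After 5 days, a combined fix-and-stain solution (final 0.05% Triton X-100, 1% formaldehyde, 1 ug/ml Hoechst) was added. Nuclei counted on 4× images gave relative viability as treated counts over vehicle counts, reported as the median of duplicate plates.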

[3] = compound: CN1C=C(C2=CC=CC=C21)/C=C\3/C4=C(C=CC=N4)NC3=O + Cc1cc(Nc2cc(N3CCN(C)CC3)nc(Sc3ccc(NC(=O)C4CC4)cc3)n2)n[nH]1 [Tozasertib] (partner 0.1 µM)
Procedure, shortened: as §1

Trametinib + Phenformin = compound: CC(=O)Nc1cccc(-n2c(=O)n(C3CC3)c(=O)c3c(Nc4ccc(I)cc4F)n(C)c(=O)c(C)c32)c1 [Trametinib] + N=C(N)NC(=N)NCCc1ccccc1 [Phenformin] (partner 250 µM)
Procedure, shortened: as §1

Cell Line Calu-6 has a relative viability ([1]; 0.02 µM) of 1.02, a relative viability ([1]; 0.06325 µM) of 0.968 and a relative viability ([1]; 0.2 µM) of 1.01. It also gave a relative viability ([1]; 0.6325 µM) of 0.99, a relative viability ([1]; 2 µM) of 1.05 and a relative viability ([2]; first compound 0.02 µM) of 1.15. For the same cell line, the relative viability ([2]; first compound 0.06325 µM) was 1, the relative viability ([2]; first compound 0.2 µM) was 1 and the relative viability ([2]; first compound 0.6325 µM) was 0.968. The relative viability ([2]; first compound 2 µM) was 1.01.

ChaGo-K-1 gave a relative viability ([1]; 0.02 µM) of 0.991, a relative viability ([1]; 0.06325 µM) of 1 and a relative viability ([1]; 0.2 µM) of 0.784. The relative viability ([1]; 0.6325 µM) was 1.02, the relative viability ([1]; 2 µM) was 0.996 and the relative viability ([3]; first compound 0.02 µM) was 0.194. The relative viability ([3]; first compound 0.06325 µM) was 0.221, the relative viability ([3]; first compound 0.2 µM) was 0.212 and the relative viability ([3]; first compound 0.6325 µM) was 0.214. For the same cell line, the relative viability ([3]; first compound 2 µM) was 0.201, the relative viability (Trametinib + Phenformin; first compound 0.0025 µM) was 0.413 and the relative viability (Trametinib + Phenformin; first compound 0.007906 µM) was 0.444. It also gave a relative viability (Trametinib + Phenformin; first compound 0.025 µM) of 0.492, a relative viability (Trametinib + Phenformin; first compound 0.07906 µM) of 0.414 and a relative viability (Trametinib + Phenformin; first compound 0.25 µM) of 0.317.

EBC-1 showed a relative viability ([1]; 0.02 µM) of 0.968, a relative viability ([1]; 0.06325 µM) of 0.963 and a relative viability ([1]; 0.2 µM) of 0.905. For the same cell line, the relative viability ([1]; 0.6325 µM) was 0.912, the relative viability ([1]; 2 µM) was 0.969 and the relative viability ([2]; first compound 0.02 µM) was 0.197. The relative viability ([2]; first compound 0.06325 µM) was 0.201, the relative viability ([2]; first compound 0.2 µM) was 0.177 and the relative viability ([2]; first compound 0.6325 µM) was 0.232. It also gave a relative viability ([2]; first compound 2 µM) of 0.2.

For EKVX, the relative viability ([1]; 0.02 µM) was 0.952, the relative viability ([1]; 0.06325 µM) was 0.812 and the relative viability ([1]; 0.2 µM) was 0.801. For the same cell line, the relative viability ([1]; 0.6325 µM) was 0.885, the relative viability ([1]; 2 µM) was 0.983 and the relative viability ([3]; first compound 0.02 µM) was 0.297. The relative viability ([3]; first compound 0.06325 µM) was 0.422, the relative viability ([3]; first compound 0.2 µM) was 0.402 and the relative viability ([3]; first compound 0.6325 µM) was 0.355. For the same cell line, the relative viability ([3]; first compound 2 µM) was 0.38, the relative viability (Trametinib + Phenformin; first compound 0.0025 µM) was 0.234 and the relative viability (Trametinib + Phenformin; first compound 0.007906 µM) was 0.209. It also gave a relative viability (Trametinib + Phenformin; first compound 0.025 µM) of 0.198, a relative viability (Trametinib + Phenformin; first compound 0.07906 µM) of 0.192 and a relative viability (Trametinib + Phenformin; first compound 0.25 µM) of 0.24. It also gave a relative viability ([2]; first compound 0.02 µM) of 0.221, a relative viability ([2]; first compound 0.06325 µM) of 0.148 and a relative viability ([2]; first compound 0.2 µM) of 0.156. For the same cell line, the relative viability ([2]; first compound 0.6325 µM) was 0.188 and the relative viability ([2]; first compound 2 µM) was 0.167.

EMC-BAC-2 gave a relative viability ([1]; 0.02 µM) of 1.1, a relative viability ([1]; 0.06325 µM) of 0.92 and a relative viability ([1]; 0.2 µM) of 0.89. It also gave a relative viability ([1]; 0.6325 µM) of 0.798, a relative viability ([1]; 2 µM) of 0.673 and a relative viability ([3]; first compound 0.02 µM) of 0.315. It also gave a relative viability ([3]; first compound 0.06325 µM) of 0.295, a relative viability ([3]; first compound 0.2 µM) of 0.301 and a relative viability ([3]; first compound 0.6325 µM) of 0.281. It also gave a relative viability ([3]; first compound 2 µM) of 0.374, a relative viability (Trametinib + Phenformin; first compound 0.0025 µM) of 0.582 and a relative viability (Trametinib + Phenformin; first compound 0.007906 µM) of 0.565. The relative viability (Trametinib + Phenformin; first compound 0.025 µM) was 0.443, the relative viability (Trametinib + Phenformin; first compound 0.07906 µM) was 0.475 and the relative viability (Trametinib + Phenformin; first compound 0.25 µM) was 0.31. It also gave a relative viability ([2]; first compound 0.02 µM) of 0.883, a relative viability ([2]; first compound 0.06325 µM) of 0.91 and a relative viability ([2]; first compound 0.2 µM) of 0.934. It also gave a relative viability ([2]; first compound 0.6325 µM) of 0.836 and a relative viability ([2]; first compound 2 µM) of 0.921.

EPLC-272H gave a relative viability ([1]; 0.02 µM) of 0.921, a relative viability ([1]; 0.06325 µM) of 0.828 and a relative viability ([1]; 0.2 µM) of 0.639. The relative viability ([1]; 0.6325 µM) was 0.645, the relative viability ([1]; 2 µM) was 0.869 and the relative viability ([3]; first compound 0.02 µM) was 0.193. The relative viability ([3]; first compound 0.06325 µM) was 0.276, the relative viability ([3]; first compound 0.2 µM) was 0.244 and the relative viability ([3]; first compound 2 µM) was 0.283. The relative viability (Trametinib + Phenformin; first compound 0.0025 µM) was 0.273, the relative viability (Trametinib + Phenformin; first compound 0.007906 µM) was 0.194 and the relative viability (Trametinib + Phenformin; first compound 0.025 µM) was 0.171. For the same cell line, the relative viability (Trametinib + Phenformin; first compound 0.07906 µM) was 0.15, the relative viability (Trametinib + Phenformin; first compound 0.25 µM) was 0.128 and the relative viability ([2]; first compound 0.02 µM) was 0.979. It also gave a relative viability ([2]; first compound 0.06325 µM) of 0.819, a relative viability ([2]; first compound 0.6325 µM) of 0.995 and a relative viability ([2]; first compound 2 µM) of 0.883.

H3255 was tested, and the relative viability ([1]; 0.02 µM) was 1.04, the relative viability ([1]; 0.06325 µM) was 0.951 and the relative viability ([1]; 0.2 µM) was 0.834. For the same cell line, the relative viability ([1]; 0.6325 µM) was 0.978, the relative viability ([1]; 2 µM) was 0.903 and the relative viability ([3]; first compound 0.02 µM) was 0.739. The relative viability ([3]; first compound 0.06325 µM) was 0.624, the relative viability ([3]; first compound 0.2 µM) was 0.847 and the relative viability ([3]; first compound 0.6325 µM) was 0.638. It also gave a relative viability ([3]; first compound 2 µM) of 0.866, a relative viability (Trametinib + Phenformin; first compound 0.0025 µM) of 0.346 and a relative viability (Trametinib + Phenformin; first compound 0.007906 µM) of 0.368. For the same cell line, the relative viability (Trametinib + Phenformin; first compound 0.025 µM) was 0.342, the relative viability (Trametinib + Phenformin; first compound 0.07906 µM) was 0.297 and the relative viability (Trametinib + Phenformin; first compound 0.25 µM) was 0.263. For the same cell line, the relative viability ([2]; first compound 0.02 µM) was 0.267, the relative viability ([2]; first compound 0.06325 µM) was 0.269 and the relative viability ([2]; first compound 0.2 µM) was 0.205. For the same cell line, the relative viability ([2]; first compound 0.6325 µM) was 0.232 and the relative viability ([2]; first compound 2 µM) was 0.209.

HARA was tested, and the relative viability ([1]; 0.02 µM) was 0.935, the relative viability ([1]; 0.06325 µM) was 0.972 and the relative viability ([1]; 0.2 µM) was 0.657. For the same cell line, the relative viability ([1]; 0.6325 µM) was 0.96, the relative viability ([1]; 2 µM) was 0.928 and the relative viability ([3]; first compound 0.02 µM) was 0.0897. The relative viability ([3]; first compound 0.06325 µM) was 0.112, the relative viability ([3]; first compound 0.6325 µM) was 0.0723 and the relative viability ([3]; first compound 2 µM) was 0.0941. The relative viability (Trametinib + Phenformin; first compound 0.0025 µM) was 0.399, the relative viability (Trametinib + Phenformin; first compound 0.007906 µM) was 0.426 and the relative viability (Trametinib + Phenformin; first compound 0.025 µM) was 0.386. The relative viability (Trametinib + Phenformin; first compound 0.07906 µM) was 0.373, the relative viability (Trametinib + Phenformin; first compound 0.25 µM) was 0.214 and the relative viability ([2]; first compound 0.02 µM) was 0.703. The relative viability ([2]; first compound 0.06325 µM) was 0.653, the relative viability ([2]; first compound 0.2 µM) was 0.665 and the relative viability ([2]; first compound 0.6325 µM) was 0.857. For the same cell line, the relative viability ([2]; first compound 2 µM) was 0.768.

HCC-15 was tested, and the relative viability ([1]; 0.02 µM) was 0.947, the relative viability ([1]; 0.06325 µM) was 0.952 and the relative viability ([1]; 0.2 µM) was 1.03. It also gave a relative viability ([1]; 0.6325 µM) of 1.01, a relative viability ([1]; 2 µM) of 1.01 and a relative viability ([3]; first compound 0.02 µM) of 0.322. It also gave a relative viability ([3]; first compound 0.06325 µM) of 0.406, a relative viability ([3]; first compound 0.2 µM) of 0.493 and a relative viability ([3]; first compound 0.6325 µM) of 0.346. It also gave a relative viability ([3]; first compound 2 µM) of 0.531, a relative viability (Trametinib + Phenformin; first compound 0.0025 µM) of 0.361 and a relative viability (Trametinib + Phenformin; first compound 0.007906 µM) of 0.229. It also gave a relative viability (Trametinib + Phenformin; first compound 0.025 µM) of 0.18, a relative viability (Trametinib + Phenformin; first compound 0.07906 µM) of 0.179 and a relative viability (Trametinib + Phenformin; first compound 0.25 µM) of 0.145. For the same cell line, the relative viability ([2]; first compound 0.02 µM) was 0.827, the relative viability ([2]; first compound 0.06325 µM) was 0.71 and the relative viability ([2]; first compound 0.2 µM) was 0.903. The relative viability ([2]; first compound 0.6325 µM) was 0.886 and the relative viability ([2]; first compound 2 µM) was 0.932.
